Results from ChEMBL document CHEMBL4477215, “Specific Correction of Alternative Survival Motor Neuron 2 Splicing by Small Molecules: Discovery of a Potential Novel Medicine To Treat Spinal Muscular Atrophy” (J Med Chem, 2016).

Legend:
Homo sapiens [1] = organism: Homo sapiens; test: Inhibition of mRNA splicing of SMN2 exon 7 in fibroblasts derived from human SMA type 1/2/3 patient assessed as increase in SMN protein level after 48 hrs by HTRF assay
[2] = Mutagenicity in Salmonella typhimurium TA1535 assessed as increase in revertant colonies after 2 days in presence of rat liver S9 fraction by Ames test relative to control; format: toxicity; details: salmonella enterica subsp. enterica serovar typhimurium, s9, 48 h
[3] = Mutagenicity in Salmonella typhimurium TA98 assessed as increase in revertant colonies after 2 days in presence of rat liver S9 fraction by Ames test relative to control; format: toxicity; details: salmonella enterica subsp. enterica serovar typhimurium, s9, 48 h
[4] = Mutagenicity in Salmonella typhimurium TA97 assessed as increase in revertant colonies after 2 days in presence of rat liver S9 fraction by Ames test relative to control; format: toxicity; details: salmonella enterica subsp. enterica serovar typhimurium, s9, 48 h
[5] = Mutagenicity in Salmonella typhimurium TA100 assessed as increase in revertant colonies after 2 days in presence of rat liver S9 fraction by Ames test relative to control; format: toxicity; details: salmonella enterica subsp. enterica serovar typhimurium, s9, 48 h
[6] = Mutagenicity in Salmonella typhimurium TA102 assessed as increase in revertant colonies after 2 days in presence of rat liver S9 fraction by Ames test relative to control; format: toxicity; details: salmonella enterica subsp. enterica serovar typhimurium, s9, 48 h
Homo sapiens [7] = organism: Homo sapiens; test: Inhibition of mRNA splicing of SMN2 exon 7 in GM03813 fibroblasts derived from human SMA type 1 patient after 24 hrs by RT-qPCR analysis
P-gp (ABCB1) = P-gp (ABCB1) (Homo sapiens, UniProt P08183); test: Substrate activity at human P-gp assessed as efflux ratio by cell based assay; details: not told
[8] = Clearance in rat at 2 mg/kg, iv; format: ADME, organism-based; details: in vivo
[9] = Volume of distribution at steady state in rat at 2 mg/kg, iv; format: ADME, organism-based; details: in vivo, read-out: Vdss
[10] = Half life in rat at 10 mg/kg, po; format: ADME, organism-based; details: in vivo
[11] = Volume of distribution at steady state in Cynomolgus monkey at 0.3 mg/kg, iv; format: ADME, organism-based, Macaca fascicularis; details: in vivo, read-out: Vdss
[12] = Half life in Cynomolgus monkey at 1 mg/kg, po; format: ADME, organism-based, Macaca fascicularis; details: in vivo
[13] = Oral bioavailability in Cynomolgus monkey at 1 mg/kg; format: ADME, organism-based, Macaca fascicularis; details: in vivo
[14] = Fraction unbound in human plasma; format: ADME, cell-free
[15] = Fraction unbound in Cynomolgus monkey plasma; format: ADME, cell-free, Macaca fascicularis
[16] = Fraction unbound in rat plasma; format: ADME, cell-free
[17] = Fraction unbound in mouse plasma; format: ADME, cell-free
[18] = AUC in plasma of C/C-allele mouse harboring FVB.129(B6)-Smn1tm5(Smn1/SMN2)Mrph/J at 10 mg/kg, po; format: ADME, organism-based
[19] = Unbound AUC in plasma of C/C-allele mouse harboring FVB.129(B6)-Smn1tm5(Smn1/SMN2)Mrph/J at 10 mg/kg, po; format: ADME, organism-based; details: in vivo
Mus musculus [20] = test: Inhibition of mRNA splicing of SMN2 exon 7 in C/C-allele mouse harboring FVB.129(B6) Smn1tm5(Smn1/SMN2)Mrph/J assessed as increase in SMN protein level in brain at 1 mg/kg, po qd for 10 days measured 1 hr after 10th dose by HTRF assay relative to control; format: functional; parameters: scale not given: the % may be the effect or the level left
Mus musculus [21] = test: Inhibition of mRNA splicing of SMN2 exon 7 in C/C-allele mouse harboring FVB.129(B6) Smn1tm5(Smn1/SMN2)Mrph/J assessed as increase in SMN protein level in brain at 3 mg/kg, po qd for 10 days measured 1 hr after 10th dose by HTRF assay relative to control; format: functional; parameters: scale not given: the % may be the effect or the level left
Mus musculus [22] = test: Inhibition of mRNA splicing of SMN2 exon 7 in C/C-allele mouse harboring FVB.129(B6) Smn1tm5(Smn1/SMN2)Mrph/J assessed as increase in SMN protein level in brain at 10 mg/kg, po qd for 10 days measured 1 hr after 10th dose by HTRF assay relative to control; format: functional; parameters: scale not given: the % may be the effect or the level left
Mus musculus [23] = test: Inhibition of mRNA splicing of SMN2 exon 7 in C/C-allele mouse harboring FVB.129(B6) Smn1tm5(Smn1/SMN2)Mrph/J assessed as increase in SMN protein level in quadriceps at 1 mg/kg, po qd for 10 days measured 1 hr after 10th dose by HTRF assay relative to control; format: functional; parameters: scale not given: the % may be the effect or the level left
Mus musculus [24] = test: Inhibition of mRNA splicing of SMN2 exon 7 in C/C-allele mouse harboring FVB.129(B6) Smn1tm5(Smn1/SMN2)Mrph/J assessed as increase in SMN protein level in quadriceps at 3 mg/kg, po qd for 10 days measured 1 hr after 10th dose by HTRF assay relative to control; format: functional; parameters: scale not given: the % may be the effect or the level left
Mus musculus [25] = test: Inhibition of mRNA splicing of SMN2 exon 7 in C/C-allele mouse harboring FVB.129(B6) Smn1tm5(Smn1/SMN2)Mrph/J assessed as increase in SMN protein level in quadriceps administered orally qd for 10 days measured 1 hr after 10th dose by HTRF assay; format: functional, organism-based
Mus musculus [26] = test: Inhibition of mRNA splicing of SMN2 exon 7 in C/C-allele mouse harboring FVB.129(B6) Smn1tm5(Smn1/SMN2)Mrph/J assessed as increase in SMN protein level in brain administered orally po qd for 10 days measured 1 hr after 10th dose by HTRF assay; format: functional, organism-based
Mus musculus [27] = test: Inhibition of mRNA splicing of SMN2 exon 7 in neonatal delta7 mouse harboring FVB.Cg-Tg(SMN2 delta7)4299Ahmb Tg(SMN2)-89Ahmb Smn1tm1Msd/J assessed as increase in SMN protein level in quadriceps at 0.3 mg/kg, ip qd administered from postnatal day 3 to postnatal day 9 measured 1 hr after last dose by HTRF assay relative to control; format: functional; parameters: scale not given: the % may be the effect or the level left
Mus musculus [28] = test: Inhibition of mRNA splicing of SMN2 exon 7 in neonatal delta7 mouse harboring FVB.Cg-Tg(SMN2 delta7)4299Ahmb Tg(SMN2)-89Ahmb Smn1tm1Msd/J assessed as increase in SMN protein level in brain at 0.3 mg/kg, ip qd administered from postnatal day 3 to postnatal day 9 measured 1 hr after last dose by HTRF assay relative to control; format: functional; parameters: scale not given: the % may be the effect or the level left
Mus musculus [29] = test: Inhibition of mRNA splicing of SMN2 exon 7 in neonatal delta7 mouse harboring FVB.Cg-Tg(SMN2 delta7)4299Ahmb Tg(SMN2)-89Ahmb Smn1tm1Msd/J assessed as increase in SMN protein level in brain at 1 mg/kg, ip qd administered from postnatal day 3 to postnatal day 9 measured 1 hr after last dose by HTRF assay relative to control; format: functional; parameters: scale not given: the % may be the effect or the level left
Mus musculus [30] = test: Inhibition of mRNA splicing of SMN2 exon 7 in neonatal delta7 mouse harboring FVB.Cg-Tg(SMN2 delta7)4299Ahmb Tg(SMN2)-89Ahmb Smn1tm1Msd/J assessed as increase in SMN protein level in quadriceps administered ip qd dosed from postnatal day 3 to postnatal day 9 measured 1 hr after last dose by HTRF assay; format: functional, organism-based
Mus musculus [31] = test: Inhibition of mRNA splicing of SMN2 exon 7 in neonatal delta7 mouse harboring FVB.Cg-Tg(SMN2 delta7)4299Ahmb Tg(SMN2)-89Ahmb Smn1tm1Msd/J assessed as increase in SMN protein level in brain administered ip qd dosed from postnatal day 3 to postnatal day 9 measured 1 hr after last dose by HTRF assay; format: functional, organism-based

Sequence of P-gp (ABCB1) (P08183 whole entry): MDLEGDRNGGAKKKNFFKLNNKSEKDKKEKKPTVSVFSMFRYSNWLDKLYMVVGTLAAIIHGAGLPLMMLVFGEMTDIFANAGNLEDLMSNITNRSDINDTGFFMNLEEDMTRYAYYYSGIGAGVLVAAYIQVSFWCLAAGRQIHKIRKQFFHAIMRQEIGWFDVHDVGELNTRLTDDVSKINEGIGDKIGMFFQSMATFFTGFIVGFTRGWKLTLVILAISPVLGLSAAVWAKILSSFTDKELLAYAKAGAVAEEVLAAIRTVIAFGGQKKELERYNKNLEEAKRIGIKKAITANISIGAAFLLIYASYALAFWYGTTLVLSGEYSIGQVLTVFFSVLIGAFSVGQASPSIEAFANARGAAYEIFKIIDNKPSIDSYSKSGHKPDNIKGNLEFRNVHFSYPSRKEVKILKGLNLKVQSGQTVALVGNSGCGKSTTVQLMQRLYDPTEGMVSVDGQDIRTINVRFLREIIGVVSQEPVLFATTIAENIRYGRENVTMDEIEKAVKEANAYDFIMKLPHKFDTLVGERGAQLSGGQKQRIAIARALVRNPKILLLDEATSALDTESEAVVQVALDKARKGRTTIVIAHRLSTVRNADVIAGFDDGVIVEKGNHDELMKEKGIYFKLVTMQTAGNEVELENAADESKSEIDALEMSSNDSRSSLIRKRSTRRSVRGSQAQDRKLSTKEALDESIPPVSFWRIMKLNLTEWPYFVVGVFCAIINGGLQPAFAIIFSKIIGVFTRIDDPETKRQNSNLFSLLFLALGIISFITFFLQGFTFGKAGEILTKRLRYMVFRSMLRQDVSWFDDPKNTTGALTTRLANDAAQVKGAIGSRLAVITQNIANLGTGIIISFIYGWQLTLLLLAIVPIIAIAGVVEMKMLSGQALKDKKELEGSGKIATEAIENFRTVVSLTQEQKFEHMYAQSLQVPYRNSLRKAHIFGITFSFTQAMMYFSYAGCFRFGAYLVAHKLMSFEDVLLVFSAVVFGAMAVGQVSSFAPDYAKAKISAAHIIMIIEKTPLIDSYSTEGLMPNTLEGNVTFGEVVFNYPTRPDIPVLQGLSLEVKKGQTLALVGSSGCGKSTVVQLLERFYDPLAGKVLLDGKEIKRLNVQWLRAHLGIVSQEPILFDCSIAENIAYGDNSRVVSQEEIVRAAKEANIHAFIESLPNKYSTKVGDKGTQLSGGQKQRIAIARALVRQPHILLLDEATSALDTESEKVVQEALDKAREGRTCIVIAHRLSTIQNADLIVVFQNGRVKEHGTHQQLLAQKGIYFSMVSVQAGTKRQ

## Cc1cn2cc(-c3cc(=O)n4cc(N5CCN(C)CC5)ccc4n3)cc(F)c2n1
Homo sapiens [1]
  EC1.5: 40 nM
[2]
  Activity: Non-Toxic
[3]
  Activity: Non-Toxic
[4]
  Activity: Non-Toxic
[5]
  Activity: Non-Toxic
[6]
  Activity: Non-Toxic
Homo sapiens [7]
  EC1.5: 32 nM
P-gp (ABCB1)
  efflux ratio: 1.9
[8]
  clearance: 61 mL/min/kg
[9]
  Vd: 5 L/kg
[10]
  half-life: 4 h
[11]
  Vd: 2.4 L/kg
[12]
  half-life: 2.9 h
[13]
  bioavailability: 84%
[14]
  fraction unbound: 0.22
[15]
  fraction unbound: 0.18
[16]
  fraction unbound: 0.16
[17]
  fraction unbound: 0.17
[18]
  AUC: 2700 ng·h/mL
[19]
  fAUC: 450 ng·h/mL
Mus musculus [20]
  Activity: 42%
Mus musculus [21]
  Activity: 60%
Mus musculus [22]
  Activity: 141%
Mus musculus [23]
  Activity: 40%
Mus musculus [24]
  Activity: 81%
Mus musculus [25]
  inhibition: Dose-dependent effect
Mus musculus [26]
  inhibition: Dose-dependent effect
Mus musculus [27]
  Activity: 189%
Mus musculus [28]
  Activity: 116%
Mus musculus [29]
  Activity: 159%
Mus musculus [30]
  inhibition: Dose-dependent effect
Mus musculus [31]
  inhibition: Dose-dependent effect

## CCc1nc(C)cn2nc(-c3cc(=O)n4cc(C5CCN(C)CC5)cc(C)c4n3)cc12
Homo sapiens [1]
  EC1.5: 87 nM
[2]
  Activity: Non-Toxic
[3]
  Activity: Non-Toxic
[4]
  Activity: Non-Toxic
[5]
  Activity: Non-Toxic
[6]
  Activity: Non-Toxic
Homo sapiens [7]
  EC1.5: 23 nM
P-gp (ABCB1)
  efflux ratio: 2
[8]
  clearance: 18 mL/min/kg
[9]
  Vd: 20 L/kg
[10]
  half-life: 12 h
[11]
  Vd: 20 L/kg
[12]
  half-life: 40 to 60 h
[13]
  bioavailability: 52%
[14]
  fraction unbound: 0.13
[15]
  fraction unbound: 0.16
[16]
  fraction unbound: 0.17
[17]
  fraction unbound: 0.02
[18]
  AUC: 33000 ng·h/mL
[19]
  fAUC: 660 ng·h/mL
Mus musculus [20]
  Activity: 7%
Mus musculus [21]
  Activity: 19%
Mus musculus [22]
  Activity: 122%
Mus musculus [23]
  Activity: 30%
Mus musculus [24]
  Activity: 57%
Mus musculus [25]
  inhibition: Dose-dependent effect
Mus musculus [26]
  inhibition: Dose-dependent effect
Mus musculus [27]
  Activity: 40%
Mus musculus [28]
  Activity: 20%
Mus musculus [29]
  Activity: 55%
Mus musculus [30]
  inhibition: Dose-dependent effect
Mus musculus [31]
  inhibition: Dose-dependent effect

## Cc1cn2cc(-c3cc(=O)n4cc(N5CCN(C)CC5)ccc4n3)cc(C)c2n1
Homo sapiens [1]
  EC1.5: 14 to 55 nM
[2]
  Activity: Non-Toxic
[3]
  Activity: Non-Toxic
[4]
  Activity: Non-Toxic
[5]
  Activity: Non-Toxic
[6]
  Activity: Non-Toxic
Homo sapiens [7]
  EC1.5: 7 nM
P-gp (ABCB1)
  efflux ratio: 2.4
[8]
  clearance: 38 mL/min/kg
[9]
  Vd: 14 L/kg
[10]
  half-life: 6 h
[11]
  Vd: 4.3 L/kg
[12]
  half-life: 8 h
[13]
  bioavailability: 100%
[14]
  fraction unbound: 0.11
[15]
  fraction unbound: 0.08
[16]
  fraction unbound: 0.1
[17]
  fraction unbound: 0.16
[18]
  AUC: 2500 ng·h/mL
[19]
  fAUC: 400 ng·h/mL
Mus musculus [20]
  Activity: 0%
Mus musculus [21]
  Activity: 0%
Mus musculus [22]
  Activity: 39%
Mus musculus [23]
  Activity: 28%
Mus musculus [24]
  Activity: 70%
Mus musculus [25]
  inhibition: Dose-dependent effect
Mus musculus [26]
  inhibition: Dose-dependent effect
Mus musculus [27]
  Activity: 31%
Mus musculus [28]
  Activity: 39%
Mus musculus [29]
  Activity: 130%
Mus musculus [30]
  inhibition: Dose-dependent effect
Mus musculus [31]
  inhibition: Dose-dependent effect
